Test results as given in ChEMBL document CHEMBL1123199, “Synthesis and structure-activity relationships of naftifine-related allylamine antimycotics” (1986).
Converted amounts (≈) assume the structure as drawn.

How the values were obtained:
[1] = test system: Aspergillus fumigatus; test: Antifungal activity measured against Aspergillus fumigatus; assay type: functional
[2] = test system: Candida parapsilosis; test: Antifungal activity against Candida parapsilosis.; assay type: functional; conditions: Lodderomyces parapsilosis
[3] = test system: Epidermophyton floccosum; test: Antifungal activity against Epidermophyton floccosum.; assay type: functional
[4] = test system: Microsporum canis; test: Antifungal activity against Microsporum canis; assay type: functional
[5] = test system: Sporothrix schenckii; test: Antifungal activity measured against Sporothrix schenck ii.; assay type: functional
[6] = test system: Trichophyton benhamiae; test: Antifungal activity measured against Trichophyton mentagrophytes; assay type: functional, Arthroderma benhamiae

SMILES | MIC [1] [µg/mL] | MIC [2] [µg/mL] | MIC [3] [µg/mL] | MIC [4] [µg/mL] | MIC [5] [µg/mL] | MIC [6] [µg/mL]
CN(C/C=C/c1ccccc1)Cc1coc2ccccc12 | > 100 | 25 (≈ 90.1 µM) | 12.5 (≈ 45.1 µM) | 1.6 (≈ 5.77 µM) | 100 (≈ 361 µM) | 1.6 (≈ 5.77 µM)
CN(C/C=C/C1CCCCC1)Cc1cccc2ccccc12 | > 100 | > 100 | 12.5 (≈ 42.6 µM) | 12.5 (≈ 42.6 µM) | > 100 | 1.6 (≈ 5.45 µM)
CN(C/C=C/CO)Cc1cccc2ccccc12 | > 100 | > 100 | > 100 | > 100 | > 100 | > 100
CN(C/C=C/c1ccco1)Cc1cccc2ccccc12 | > 100 | > 100 | 6.2 (≈ 22.4 µM) | 6.2 (≈ 22.4 µM) | 100 (≈ 361 µM) | < 1.6
CN(CCC(=O)c1ccccc1)Cc1cccc2ccccc12 | > 100 | > 100 | 6.2 (≈ 20.4 µM) | 6.2 (≈ 20.4 µM) | 50 (≈ 165 µM) | 6.2 (≈ 20.4 µM)
C(=C\c1ccccc1)/CNCc1cccc2ccccc12 [N-DEALKYL NAFTIFINE] | > 100 | > 100 | 100 (≈ 366 µM) | 100 (≈ 366 µM) | 100 (≈ 366 µM) | 12.5 (≈ 45.7 µM)
CN(CCC(O)c1ccccc1)Cc1cccc2ccccc12 (stereo not given) | > 100 | > 100 | > 100 | > 100 | > 100 | > 100
CC(=O)N(C/C=C/c1ccccc1)Cc1cccc2ccccc12 | > 100 | > 100 | > 100 | > 100 | > 100 | > 100
CN(C/C=C/c1ccccc1)Cc1c2c(cc3c1CCC3)CCC2 | > 100 | > 100 | 3.1 (≈ 9.76 µM) | 1.6 (≈ 5.04 µM) | 6.25 (≈ 19.7 µM) | 1.6 (≈ 5.04 µM)
C(=C\c1ccccc1)/CN(Cc1cccc2ccccc12)C1CCCCC1 | > 100 | > 100 | > 100 | > 100 | > 100 | > 100
C(=C\c1ccccc1)/CN(Cc1ccccc1)Cc1cccc2ccccc12 | > 100 | > 100 | > 100 | > 100 | > 100 | > 100
C=CCN(C)Cc1cccc2ccccc12 | > 100 | – | > 100 | > 100 | > 100 | > 100
C(=C\c1ccccc1)/CN(C/C=C/c1ccccc1)Cc1cccc2ccccc12 | > 100 | > 100 | > 100 | > 100 | > 100 | > 100
CC(C)N(C/C=C/c1ccccc1)Cc1cccc2ccccc12 | > 100 | 100 (≈ 317 µM) | < 1.6 | 3.1 (≈ 9.83 µM) | 50 (≈ 158 µM) | < 1.6
CN(C/C=C/c1ccccc1)Cc1cc2ccccc2c2ccccc12 | 100 (≈ 296 µM) | 100 (≈ 296 µM) | 100 (≈ 296 µM) | 100 (≈ 296 µM) | 100 (≈ 296 µM) | 100 (≈ 296 µM)
CN(C/C=C/c1cccn1C)Cc1cccc2ccccc12 | > 100 | > 100 | 25 (≈ 86.1 µM) | 50 (≈ 172 µM) | 50 (≈ 172 µM) | 25 (≈ 86.1 µM)
CN(C/C=C/c1ccccc1)C(c1ccccc1)c1ccccc1 | > 100 | > 100 | > 100 | > 100 | > 100 | > 100
O=S(=O)(C/C=C/c1ccccc1)Cc1cccc2ccccc12 | > 100 | > 100 | > 100 | > 100 | > 100 | > 100

SMILES | MIC [1] [µg/mL] | MIC [2] [µg/mL] | MIC [3] [µg/mL] | MIC [4] [µg/mL] | MIC [5] [µg/mL] | MIC [6] [µg/mL]
C(=C\c1ccccc1)/CN(Cc1cccc2ccccc12)c1ccccc1 | > 100 | > 100 | > 100 | > 100 | 50 (≈ 143 µM) | > 100
CN(Cc1cccc2ccccc12)C(=O)/C=C/c1ccccc1 | > 100 | > 100 | > 100 | > 100 | > 100 | > 100
CN(C/C=C/c1cccc2ccccc12)Cc1cccc2ccccc12 | > 100 | > 100 | 100 (≈ 296 µM) | 100 (≈ 296 µM) | 100 (≈ 296 µM) | 1.6 (≈ 4.74 µM)
COc1ccc(/C=C/CN(C)Cc2cccc3ccccc23)cc1 | > 100 | > 100 | 50 (≈ 158 µM) | 50 (≈ 158 µM) | > 100 | 6.2 (≈ 19.5 µM)
COc1ccc2ccccc2c1CN(C)C/C=C/c1ccccc1 | > 100 | > 100 | 50 (≈ 158 µM) | 100 (≈ 315 µM) | > 100 | 50 (≈ 158 µM)
C(=C\c1ccccc1)/CSCc1cccc2ccccc12 | > 100 | > 100 | > 100 | > 100 | > 100 | 25 (≈ 86.1 µM)
CN(Cc1cccc2ccccc12)CC1CC1c1ccccc1 (stereo not given) | > 100 | > 100 | 25 (≈ 82.9 µM) | 12.5 (≈ 41.5 µM) | 100 (≈ 332 µM) | 12.5 (≈ 41.5 µM)
CN(C/C=C/C#N)Cc1cccc2ccccc12 | > 100 | > 100 | 100 (≈ 423 µM) | 100 (≈ 423 µM) | > 100 | 100 (≈ 423 µM)
CC(/C=C/c1ccccc1)N(C)Cc1cccc2ccccc12 (stereo not given) | > 100 | > 100 | 12.5 (≈ 41.5 µM) | 25 (≈ 82.9 µM) | 25 (≈ 82.9 µM) | < 1.6
CN(C/C=C/C1CC=CCC1)Cc1cccc2ccccc12 (stereo not given) | > 100 | > 100 | 25 (≈ 85.8 µM) | 25 (≈ 85.8 µM) | 100 (≈ 343 µM) | 25 (≈ 85.8 µM)
C(=C\c1ccccc1)/C=N/Cc1cccc2ccccc12 | > 100 | > 100 | 100 (≈ 369 µM) | > 100 | 100 (≈ 369 µM) | 100 (≈ 369 µM)
CN(C/C=C/c1ccccc1)CC1=CCCc2ccccc21 | > 100 | 25 (≈ 86.4 µM) | ≤ 1.6 | ≤ 1.6 | 12.5 (≈ 43.2 µM) | ≤ 1.6
[O-][S+](C/C=C/c1ccccc1)Cc1cccc2ccccc12 (stereo not given) | > 100 | > 100 | > 100 | > 100 | > 100 | > 100
C/C(=C\CN(C)Cc1cccc2ccccc12)c1ccccc1 | > 100 | > 100 | 100 (≈ 332 µM) | 100 (≈ 332 µM) | 100 (≈ 332 µM) | 50 (≈ 166 µM)
C/C(=C\c1ccccc1)CN(C)Cc1cccc2ccccc12 | > 100 | > 100 | 100 (≈ 332 µM) | 100 (≈ 332 µM) | 100 (≈ 332 µM) | 12.5 (≈ 41.5 µM)
C/C=C/CN(C)Cc1cccc2ccccc12 | > 100 | > 100 | > 100 | > 100 | > 100 | > 100
CN(CCc1ccccc1)Cc1cccc2ccccc12 | > 100 | > 100 | 100 (≈ 363 µM) | 100 (≈ 363 µM) | > 100 | 12.5 (≈ 45.4 µM)
C[N+](C)(C/C=C/c1ccccc1)Cc1cccc2ccccc12.[I-] | > 100 | > 100 | > 100 | > 100 | > 100 | 25
